{
  "source": "patent US12234257B2",
  "about": "“Triterpene saponin derivative and use thereof” (KOREA INSTITUTE OF SCIENCE AND TECHNOLOGY, priority 2020, dated 2025)",
  "assay_type_in_all_cases": "cell-based, human",
  "key": {"LC3-II": {"tested_on": "LC3-II", "assay": "Autophagy induction assay (LC3-II/LC3-I ratio by western blot)", "details": "SH-SY5Y cells; for LC3-II expression: treatment with astersaponin I", "procedure": "Protein markers contained in lysates of the SH-SY5Y cells and brain tissue of the mice (SNpc and ST) were measured by western blot analysis. Briefly, after determining a concentration, a protein sample (20 μg) was separated by 8%, 10%, or 15% sodium dodecyl sulfate-polyacrylamide gel electrophoresis (SDS-PAGE). Then, proteins separated on the gel were transferred to a polyvinylidene fluoride (PVDF) membrane for 45 minutes using a Trans-Blot Turbo Transfer System (Bio-Rad, USA). The membrane was washed with tris-buffered saline with 0.1% Tween 20, TBST) for 5 minutes and then blocked by 5% skim milk dissolved in a TBST buffer. The membrane was further incubated with monoclonal primary antibodies derived from rabbits (anti-GAPDH, anti-AMPK, anti-p-AMPK, anti-ULK, anti-p-ULK555, anti-Erk, anti-p-Erk, anti-mTOR, anti-p-mTOR, anti-LC3B, anti-TH, and anti-α-synuclein antibodies). The primary antibodies were diluted in a blocking buffer at a ratio of 1:1000 and incubated overnight at 4° C. On the second day, the membrane was washed with TBST three times (10 minutes each) and incubated at room temperature in a horseradish peroxidase-conjugated goat anti-rabbit IgG secondary antibody (diluted in a blocking buffer at a ratio of 1:2000). After incubating in the secondary antibody for 1 hour, the membrane was washed for 30 minutes. The protein blots on the membrane were developed using an ECL detection kit and visualized using an LAS-4000 mini system (Fujifilm, Japan). The intensity of the protein blots was quantified using Multi Gauge software (Fujifilm, Japan).\nTo investigate the autophagy inducing effect of A. koraiensis, human neuroblastoma (SH-SY5Y) cells were cultivated in 6-well plates at a density of 8×10^5 cells/well in 2 mL DMEM medium (Gibco) at 37° C. in a humidified atmosphere with 5% CO2. […] The protein expression of LC3-II in cell lysates was measured using western blot analysis. […] The immune blots were visualized using an ECL detection kit and analyzed using a LAS-4000 mini system (Fujifilm)."}, "[1]": {"tested_on": "autophagy-related protein markers (LC3-II, p62, p-AMPK, p-Erk, p-ULK, p-mTOR) in SH-SY5Y cells", "assay": "Western blot of autophagy-related protein markers in SH-SY5Y cells", "procedure": "(§1) Human neuroblastoma (SH-SY5Y) cells were purchased from the American Type Culture Collection (Manassas, Va., USA) and cultured in DMEM supplemented with 10% heat-inactivated FBS and 1% penicillin/streptomycin. The SH-SY5Y cells were cultured at 37° C. in a humid atmosphere containing 5% CO2. […] The SH-SY5Y cells were transfected with AMPK siRNA and then administered with AKNS-2 at 36 hours after siRNA transfection. […] After 24 hours from treatment with the samples, the SH-SY5Y cells were recovered and used for subsequent analysis. At 24 hours after drug treatment, the culture medium was removed from the 6-well plate, and the cells were gently washed once with cold saline. Subsequently, 1 mL of cold saline was added to each well, and cells attached to the bottom were floated by rubbing the bottom with a 1 mL pipette. The suspension was collected in a 1.5 mL tube and centrifuged at 4° C. at 13000×g for 5 minutes. After removing a supernatant, 50 μL of a RIPA lysis buffer including a protease inhibitor cocktail (Roche, Mannheim, Germany) and purchased from Cell Signaling Technology (Danvers, Mass., USA) was added to the cell pellet. After shaking the mixture at 4° C. for 30 minutes, the obtained cells were centrifuged at 4° C. at 13000×g for 20 minutes. A supernatant was collected therefrom, and a concentration of proteins was measured using a standard curve constructed using BSA by the Bradford method. Then, the supernatant was diluted with a loading buffer and heated at 99° C. for 5 minutes. Resultant cells were used in a subsequent western blot analysis. Protein markers contained in lysates of the SH-SY5Y cells and brain tissue of the mice (SNpc and ST) were measured by western blot analysis. Briefly, after determining a concentration, a protein sample (20 μg) was separated by 8%, 10%, or 15% sodium dodecyl sulfate-polyacrylamide gel electrophoresis (SDS-PAGE). Then, proteins separated on the gel were transferred to a polyvinylidene fluoride (PVDF) membrane for 45 minutes using a Trans-Blot Turbo Transfer System (Bio-Rad, USA). […] The membrane was further incubated with monoclonal primary antibodies derived from rabbits (anti-GAPDH, anti-AMPK, anti-p-AMPK, anti-ULK, anti-p-ULK555, anti-Erk, anti-p-Erk, anti-mTOR, anti-p-mTOR, anti-LC3B, anti-TH, and anti-α-synuclein antibodies). The primary antibodies were diluted in a blocking buffer at a ratio of 1:1000 and incubated overnight at 4° C. On the second day, the membrane was washed with TBST three times (10 minutes each) and incubated at room temperature in a horseradish peroxidase-conjugated goat anti-rabbit IgG secondary antibody (diluted in a blocking buffer at a ratio of 1:2000). After incubating in the secondary antibody for 1 hour, the membrane was washed for 30 minutes. The protein blots on the membrane were developed using an ECL detection kit and visualized using an LAS-4000 mini system (Fujifilm, Japan). The intensity of the protein blots was quantified using Multi Gauge software (Fujifilm, Japan)."}, "[2]": {"tested_on": "LC3, p62, TH and α-synuclein in SH-SY5Y cells", "assay": "Western blot of LC3, p62, TH and α-synuclein in MPP^+-treated SH-SY5Y cells (in vitro PD model)", "procedure": "as §1"}, "[3]": {"details": "AKNS-2 5 μM and 10 μM, vs control"}},
  "note": "“Also recorded” adds a separate entry of the source.",
  "data": [
    {"smiles": "C[C@@H]1O[C@@H](O[C@@H]2[C@@H](O)[C@H](O[C@@H]3[C@@H](O[C@@H]4OC[C@@H](O)[C@H](O)[C@H]4O)[C@@H](O)[C@H](O[C@H]4[C@H](OC(=O)[C@]56CCC(C)(C)C[C@H]5C5=CC[C@@H]7[C@@]8(C)C[C@H](O)[C@H](O[C@@H]9O[C@H](CO)[C@@H](O)[C@H](O[C@@H]%10OC[C@@H](O)[C@H](O)[C@H]%10O)[C@H]9O)[C@@](C)(CO)[C@@H]8CC[C@@]7(C)[C@]5(C)C[C@H]6O)OC[C@H](O)[C@@H]4O)O[C@H]3C)OC[C@H]2O)[C@H](O)[C@H](O)[C@H]1O", "note": "[Compound 1, 3-O-β-D-xylopyranosyl-(1→3)-β-D-glucopyranosylpolygalacic acid 28-O-α-L-rhamnopyranosyl-(1→3)-β-D-xylopyranosyl-(1→4)-[β-D-xylopyranosyl-(1→3)]-α-L-rhamnopyranosyl-(1→2)-α-L-arabinopyranosyl ester]", "values": [
      {"measurement": "LC3-II/LC3-I ratio", "setting": "LC3-II; 24 hours, 5 μM, 10 μM and 20 μM", "value": "increase in the LC3-II/LC3-I ratio in a dose-dependent manner"},
      {"measurement": "LC3-II expression", "setting": "LC3-II", "value": "significantly increasing the expression"},
      {"measurement": "LC3-II expression", "setting": "LC3-II; listed as astersaponin I", "value": "up-regulated LC3-II expression in a dose-dependent manner"},
      {"measurement": "expression level of p-Erk", "setting": "[1]; 24 hours, 10 μM and 20 μM", "value": "the expression level of p-Erk significantly increased"},
      {"measurement": "expression of p-mTOR", "setting": "[1]; 24 hours, 10 μM and 20 μM", "value": "The expression of p-mTOR was inhibited"},
      {"measurement": "expression level of p-AMPK", "setting": "[1]; 24 hours, 5, 10 and 20 μM", "value": "the expression levels of p-AMPK and p-ULK significantly increased"},
      {"measurement": "expression level of p-ULK", "setting": "[1]; 24 hours, 5, 10 and 20 μM", "value": "the expression levels of p-AMPK and p-ULK significantly increased"},
      {"measurement": "expression of LC3-II", "setting": "[1]; 24 hours, 5, 10 and 20 μM", "value": "induced the expression of LC3-II, which is an important autophagy marker, in a dose-dependent manner"},
      {"measurement": "expression level of LC3-II", "setting": "[1]; AKNS-2 5 μM and 10 μM, 24 hours, vs control", "value": "The expression level of LC3-II was significantly increased"},
      {"measurement": "expression level of p-Erk", "setting": "[1]; [3]", "value": "significantly increased expression levels of p-Erk"},
      {"measurement": "expression of p-AMPK", "setting": "[1]; [3]", "value": "Significantly increased expression"},
      {"measurement": "expression of p-ULK555", "setting": "[1]; [3]", "value": "significantly increased expression of p-ULK555"},
      {"measurement": "expression level of LC3-II", "setting": "[1]; AKNS-2 10 μM alone", "value": "significantly increased the expression level of LC3-II"},
      {"measurement": "expression of p62", "setting": "[1]; AKNS-2 10 μM alone", "value": "induced a significant decrease in expression of p62"},
      {"measurement": "expression of p-mTOR", "setting": "[1]; AKNS-2 10 μM, vs control", "value": "significantly inhibited the expression p-mTOR"},
      {"measurement": "expression of p-mTOR", "setting": "[1]; AKNS-2 (5 μM and 10 μM), AMPK siRNA experiment, normal cells", "value": "significantly inhibited the expression of p-mTOR"},
      {"measurement": "expression of TH", "setting": "[2]; AKNS-2 (5 μM and 10 μM) + 2 mM MPP^+ vs MPP^+ alone", "value": "the MPP^+-induced decrease in expression of TH was reversed; also recorded: the decreased expression of TH may be restored; also recorded: offset toxicity of MPP^+ and reversed the expression of TH"},
      {"measurement": "expression of α-synuclein", "setting": "[2]; AKNS-2 + 2 mM MPP^+ vs MPP^+ alone", "value": "canceled out the effects of MPP^+ and inhibited the expression of α-synuclein; also recorded: the increased expression level of α-synuclein was decreased"}
    ]}
  ]
}
